Assay results published in patent US20100029542A1, “PROTEIN STERILISATION BY RADIATION AND ADDITION OF A STABILISING COMPOSITION” (priority 2006, published 2010).
Where two headings read alike, the source gives them in different places. Where a SMILES comes first, the peptide text is derived from it.

Tests used:
catalase = target: T1, catalase (Bos taurus, UniProt P00432); assay: Activity recovery of catalase in dry formulations following gamma irradiation; format: physicochemical, bovine; details: for Enzyme activity remaining after gamma-irradiation: catalase 100 μg mL^−1 prior to drying, dry, 25-40 kGy
T1 construct: Catalase (from bovine liver, Sigma C9322, 2380 U /mg solid); purchased Sigma C9322; host or cells: bovine liver
T1 sequence (P00432 2-527 limits assumed): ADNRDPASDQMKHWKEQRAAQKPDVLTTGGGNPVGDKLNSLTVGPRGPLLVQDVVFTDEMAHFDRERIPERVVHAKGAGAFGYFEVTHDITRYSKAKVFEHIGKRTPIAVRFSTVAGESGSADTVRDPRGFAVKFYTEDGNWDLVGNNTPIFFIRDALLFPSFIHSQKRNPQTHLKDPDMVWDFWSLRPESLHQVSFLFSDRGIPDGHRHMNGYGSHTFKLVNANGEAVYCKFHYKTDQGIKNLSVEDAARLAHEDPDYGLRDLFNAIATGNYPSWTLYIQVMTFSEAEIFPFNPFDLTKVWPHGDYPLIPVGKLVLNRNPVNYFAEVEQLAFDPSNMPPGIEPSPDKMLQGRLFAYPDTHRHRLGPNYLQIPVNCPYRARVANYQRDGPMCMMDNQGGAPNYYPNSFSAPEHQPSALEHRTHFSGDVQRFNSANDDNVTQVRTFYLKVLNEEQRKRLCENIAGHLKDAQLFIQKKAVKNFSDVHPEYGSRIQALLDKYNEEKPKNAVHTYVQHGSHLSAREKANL
Procedure: (§1) In each example, an aqueous solution of a protein was prepared with selected additives in an Eppendorf tube or in a glass vial. Water was removed from the formulation by drying under a stream of nitrogen at 30° C. and subsequent incubation at atmospheric pressure in the presence of a dessicant. The Eppendorf tubes or the glass vials were sealed and delivered to an industrial sterilisation service for gamma irradiation, with a dose range typical for sterile medical products. The gamma-irradiated samples were reconstituted on their return and analysed for protein activity or structural integrity. The results were compared with those achieved using control (i.e. non-irradiated) samples.
(§2) The dry samples (approx. 20 μg in an Eppendorf tube) were gamma-irradiated by an industry-standard commercial sterilising service provided by Isotron PLC (Swindon, Wilts, UK), using a Cobalt 60 gamma source at ambient temperature. The radiation dose was in the range of 25-40 kGy.
(§3) The original solutions (i.e. solutions prior to drying) contained 100 μg mL^−1 of catalase and typically the total of 100 mM of protective compounds (i.e. 100 mM in case of a single compound, 50 mM+50 mM in case of two compounds, 33.3 mM+33.3 mM+33.3 mM in the case of three compounds etc.). The solutions were dried and gamma irradiated. Following the gamma irradiation, the samples, both pre- and post-gamma irradiated, were assayed for […] activity. This was performed according to the following procedure:
Water was added to the sample to achieve 100 μg mL^−1 of catalase. 100 μL of the solution was added to a mixture of 18 mL of PBS and 2 mL of hydrogen peroxide (30 mM in water) in a 125 mL polypropylene pot and mixed. The resulting mixture was incubated at room temperature precisely for 30 min. In the meantime, the following reagents were mixed in a plastic cuvette for spectrophotometric measurements: • 2.73 mL of citrate/phosphate buffer (0.1 M, pH 5.0) • 100 μL of tetramethylbenzidine (TMB) (3 mg/mL, dissolved in dimethyl sulphoxide (DMSO)) • 100 μL of lactoperoxidase
Following the 30 min incubation period, 70 μL of the catalase containing mixture was added to the cuvette and absorbance was read in approximately 30 s. The results were expressed as percentage recovery, by reference to the absorbance measured in the fresh samples (i.e. prior to incubation at increased temperature).

[1] = cited from earlier work; for Rate constant k: Table 1, singlet oxygen scavengers, measured in specified solvents
glucose oxidase = target: T2, glucose oxidase (Aspergillus niger, UniProt P13006); assay: Activity recovery of glucose oxidase in dry formulations following gamma irradiation; format: physicochemical; details: glucose oxidase 350 μg mL^−1 prior to drying, dry, 25-40 kGy
T2 construct: purchased Biocatalysts G575P
T2 sequence (P13006 17-605): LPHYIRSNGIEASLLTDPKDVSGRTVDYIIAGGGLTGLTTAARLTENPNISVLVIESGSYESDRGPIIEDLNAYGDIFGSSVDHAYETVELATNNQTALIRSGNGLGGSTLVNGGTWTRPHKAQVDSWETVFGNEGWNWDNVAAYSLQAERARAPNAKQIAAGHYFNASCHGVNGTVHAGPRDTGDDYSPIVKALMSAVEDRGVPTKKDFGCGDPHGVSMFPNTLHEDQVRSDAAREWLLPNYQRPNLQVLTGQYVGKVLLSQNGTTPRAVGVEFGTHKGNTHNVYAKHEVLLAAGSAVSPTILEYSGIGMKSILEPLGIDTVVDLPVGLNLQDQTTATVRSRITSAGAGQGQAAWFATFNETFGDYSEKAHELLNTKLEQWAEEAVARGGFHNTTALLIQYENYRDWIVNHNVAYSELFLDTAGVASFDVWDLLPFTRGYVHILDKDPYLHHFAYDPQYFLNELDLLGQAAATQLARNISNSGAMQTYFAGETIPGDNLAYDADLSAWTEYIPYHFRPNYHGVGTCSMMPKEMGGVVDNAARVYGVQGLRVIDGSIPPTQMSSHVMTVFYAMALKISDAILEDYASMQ
Procedure: as §1, §2
as §3, with “contained 350” for “contained 100”, “of glucose oxidase” for “of catalase”
Water was added to the sample to achieve 350 μg mL^−1 of glucose oxidase. 50 μL of the solution was added to 50 mL of deionised water. The following solutions were then added: • 10 mL of reagent mix (5 parts of 0.1 M sodium phosphate, pH 6+4 parts 2% w/w starch+1 part of 1 mg/mL lactoperoxidase enzyme); • 5 mL of 100 mM potassium iodide; and • 5 mL of 20% w/w glucose solution.
These were mixed together quickly. Time=0 was counted from the addition of the glucose. After 5 min, 1 ml of 5 M aq. hydrochloric acid was added to stop the reaction. The absorbance was then read at 630 nm using a Unicam UV-visible spectrophotometer (Type: Helios gamma). If the colour intensity was too great to allow an accurate reading, the sample was diluted with a defined volume of deionised water to bring the colour back on scale. The results were expressed as percentage recovery, by reference to the absorbance measured in the pre-gamma irradiation samples.

human growth hormone = target: T3, human growth hormone (Homo sapiens, UniProt P01241); assay: Recovery of structural integrity of human growth hormone in dry formulations following gamma irradiation (HPLC); format: physicochemical; details: structural integrity by HPLC, human growth hormone 2.5 mg mL^−1 prior to drying, 25-40 kGy
T3 construct: purchased National Institute of Biological Standards and Control; further samples on prescription from a GP surgery
T3 sequence (P01241 27-217): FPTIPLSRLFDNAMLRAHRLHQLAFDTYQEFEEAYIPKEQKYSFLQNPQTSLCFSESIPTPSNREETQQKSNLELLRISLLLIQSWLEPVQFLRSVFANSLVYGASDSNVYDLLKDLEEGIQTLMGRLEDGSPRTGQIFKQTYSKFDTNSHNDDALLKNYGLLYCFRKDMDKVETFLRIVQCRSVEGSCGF
Procedure: as §1, §2
Mobile phase was prepared by mixing 71 parts (by volume) of a solution of TRIS (0.05 M, in water adjusted with hydrochloric acid to a pH of 7.5) and 29 parts (by volume) of n-propylalcohol. The mobile phase was filtered prior to its use. The liquid chromatograph (Agilent 1100 series) was equipped with a 214 nm detector and a 4.6×250 mm column (Phenomenex 00G-4167-E0) packed with butylsilyl silica gel with a granulometry of 5 μm and a porosity of 30 nm, maintained at 45° C. The flow rate was maintained at 0.5 mL min^−1. 15 μL of aqueous samples of human growth hormone (typically 1-2.5 mg mL^−1) were injected. Results were expressed as % of peak area corresponding to the gamma irradiated sample with respect to that measured in non-irradiated sample.

Sandostatin = assay: Recovery of structural integrity of Sandostatin in dry formulations following gamma irradiation (HPLC); format: physicochemical; details: structural integrity by HPLC, excipient:Sandostatin weight ratio 10:1, 25-40 kGy
Procedure: as §1, §2
Mobile phase A was 0.1 M triethylamine adjusted to pH 2.3 with phosphoric acid. Mobile phase B was acetonitrile. The mobile phases were filtered prior to their use. The following linear gradient was used: time 0: 90% A+10% B; time 35 min: 60% A+40% B. The liquid chromatograph (Agilent 1100 series) was equipped with a 214 nm detector, guard column and a 4.6×150 mm C18 column with a granulometry of 5 μm and a porosity of 30 nm, maintained at ambient temperature. The flow rate was maintained at 1.0 mL min^−1. Injection volume was 50 μL (typically sandostatin at 200 μg mL^−1). Results were expressed as % of main peak area (i.e. area of the peak corresponding to intact sandostatin measured in the gamma irradiated sample with respect to that measured in non-irradiated sample of identical composition). A chromatogram of a standard solution of sandostatin was recorded after every 12 samples to ensure that no drift in the position of the major peak had occurred. The control measurements ruled out any ambiguity in interpreting the chromatograms.

[2] = Table 6, singlet oxygen scavengers, ambient temperature
[3] = Table 5, singlet oxygen scavengers, ambient temperature
[4] = Table 11, superoxide scavengers
[5] = Table 12, superoxide scavengers
[6] = Table 10, superoxide scavengers
[7] = Table 4, prior-art antioxidants, ambient temperature
[8] = Table 3, prior-art antioxidants, ambient temperature, vs non-irradiated
[9] = Table 7, singlet oxygen scavengers
[10] = Table 8, singlet oxygen scavengers

Molecule: C[C@H](N)C(=O)O [Alanine]
- Enzyme activity remaining after gamma-irradiation (catalase; [2]): 8.8%
- Rate constant k [1]: k = 3.0 × 10^7 L mol^−1 s^−1
- Rate of reaction with singlet oxygen ([1]; Table 5): 3e+07 M⁻¹ s⁻¹
- Rate of reaction with singlet oxygen ([1]; Table 6): 3e+07 M⁻¹ s⁻¹
- Enzyme activity remaining after gamma-irradiation (glucose oxidase; [3]): 15.3%

Molecule: [N-]=[N+]=[N-] [Azide anion]
- Rate constant k [1]: k = 4.5 × 10^8 L mol^−1 s^−1

Molecule: O=C(O)CC(O)(CC(=O)O)C(=O)O [Citrate]
- Structural integrity remaining after gamma-irradiation (HPLC) (human growth hormone; [4]): 45.6%
- Enzyme activity remaining after gamma-irradiation (Sandostatin; [5]): 91.8%
- Enzyme activity remaining after gamma-irradiation (catalase; [6]): 39.5%
- Enzyme activity remaining after gamma-irradiation (glucose oxidase; Table 9, superoxide scavengers): 32.0%

Molecule: [Cu+2] [Copper(II) ion]
- Rate constant k [1]: k = 6.4 × 10^7 L mol^−1 s^−1

Molecule: N[C@@H](CS)C(=O)O [Cysteine anion]
- Rate constant k [1]: k = 1.5 × 10^8 L mol^−1 s^−1

Molecule: CC12CCC(CC1)C(C)(C)O2 [Eucaliptol]
- Compatibility of the compound with catalase (catalase; as excipient in the formulation): inhibit catalase
- Enzyme activity remaining after gamma-irradiation (glucose oxidase; Table 13, ozone scavengers): 17.5%

Molecule: NCC(=O)NCC(=O)O [Glycylglycine] (H-Gly-Gly-OH)
- Structural integrity remaining after gamma-irradiation (HPLC) (human growth hormone; [7]): 47.2%
- Enzyme activity remaining after gamma-irradiation (glucose oxidase; [8]): 20.1%

Molecule: N[C@@H](Cc1c[nH]cn1)C(=O)O [Histidine]
- Structural integrity remaining after gamma-irradiation (HPLC) (human growth hormone; [9]): 55.5%
- Enzyme activity remaining after gamma-irradiation (Sandostatin; [10]): 85.0%
- Enzyme activity remaining after gamma-irradiation (catalase; [2]): 18.3%
- Rate constant k [1]: k = 4.6 × 10^7 L mol^−1 s^−1
- Rate of reaction with singlet oxygen ([1]; Table 5): 4.6e+07 M⁻¹ s⁻¹
- Rate of reaction with singlet oxygen ([1]; Table 6): 4.6e+07 M⁻¹ s⁻¹
- Rate of reaction with singlet oxygen ([1]; Table 7): 4.6e+07 M⁻¹ s⁻¹
- Rate of reaction with singlet oxygen ([1]; Table 8): 4.6e+07 M⁻¹ s⁻¹
- Enzyme activity remaining after gamma-irradiation (glucose oxidase; [3]): 57.9%

Molecule: O=C(O)CC(O)C(=O)O (stereo not drawn) [Malate]
- Structural integrity remaining after gamma-irradiation (HPLC) (human growth hormone; [4]): 52.1%
- Enzyme activity remaining after gamma-irradiation (Sandostatin; [5]): 87.7%
- Enzyme activity remaining after gamma-irradiation (catalase; [6]): 40.9%
- Enzyme activity remaining after gamma-irradiation (glucose oxidase; Table 9, superoxide scavengers): 40.7%

Molecule: OC[C@@H](O)[C@@H](O)[C@H](O)[C@H](O)CO [Mannitol]
- Structural integrity remaining after gamma-irradiation (HPLC) (human growth hormone; [4]): 28.3%
- Enzyme activity remaining after gamma-irradiation (Sandostatin; [5]): 72.6%
- Enzyme activity remaining after gamma-irradiation (catalase; [6]): 36.3%
- Enzyme activity remaining after gamma-irradiation (glucose oxidase; Table 9, superoxide scavengers): 17.2%

Molecule: NC(=O)C1=CN([C@@H]2O[C@H](COP(=O)(O)OP(=O)(O)OC[C@H]3O[C@@H](n4cnc5c(N)ncnc54)[C@H](O)[C@@H]3O)[C@@H](O)[C@H]2O)C=CC1 [NADH]
- Rate constant k [1]: k = 2 × 10^7 L mol^−1 s^−1

Molecule: [Ni+2] [Nickel (II) ion]
- Rate constant k [1]: k = 3.3 × 10^7 L mol^−1 s^−1

Molecule: CC(=O)CCCCn1c(=O)c2c(ncn2C)n(C)c1=O [Pentoxyfylline, reference compound]
- Structural integrity remaining after gamma-irradiation (HPLC) (human growth hormone; Table 15, ozone scavenger): 46.0%
- Enzyme activity remaining after gamma-irradiation (catalase; Table 14, ozone scavenger): 77.0%
- Enzyme activity remaining after gamma-irradiation (glucose oxidase; Table 13, ozone scavengers): 36.2%

Molecule: Cc1ncc(C[n+]2csc(CCO)c2C)c(N)n1 [Thiamine]
- Structural integrity remaining after gamma-irradiation (HPLC) (human growth hormone; [9]): 48.8%
- Enzyme activity remaining after gamma-irradiation (Sandostatin; [10]): 87.7%
- Enzyme activity remaining after gamma-irradiation (catalase; [2]): 26.1%
- Rate constant k [1]: k = 6 × 10^7 L mol^−1 s^−1
- Rate of reaction with singlet oxygen ([1]; Table 5): 6e+07 M⁻¹ s⁻¹
- Rate of reaction with singlet oxygen ([1]; Table 6): 6e+07 M⁻¹ s⁻¹
- Rate of reaction with singlet oxygen ([1]; Table 7): 6e+07 M⁻¹ s⁻¹
- Rate of reaction with singlet oxygen ([1]; Table 8): 6e+07 M⁻¹ s⁻¹
- Enzyme activity remaining after gamma-irradiation (glucose oxidase; [3]): 43.1%

Molecule: O=S(=O)(O)c1cc(O)c(O)c(S(=O)(=O)O)c1 [Tiron]
- Structural integrity remaining after gamma-irradiation (HPLC) (human growth hormone; [4]): 55.7%
- Enzyme activity remaining after gamma-irradiation (Sandostatin; [5]): 89.7%
- Enzyme activity remaining after gamma-irradiation (catalase; [6]): 17.9%
- Enzyme activity remaining after gamma-irradiation (glucose oxidase; Table 9, superoxide scavengers): 27.5%

Molecule: Cc1c(C)c2c(c(C)c1O)CCC(C)(C(=O)O)O2 (stereo not drawn) [Trolox]
- Structural integrity remaining after gamma-irradiation (HPLC) (human growth hormone; [7]): 49.6%
- Enzyme activity remaining after gamma-irradiation (glucose oxidase; [8]): 45.9%

Molecule: Oc1nc(O)c2nc(O)[nH]c2n1 [Urate]
- Structural integrity remaining after gamma-irradiation (HPLC) (human growth hormone; [7]): 61.5%
- Enzyme activity remaining after gamma-irradiation (glucose oxidase; [8]): 32.6%

Molecule: Silymarine
- Structural integrity remaining after gamma-irradiation (HPLC) (human growth hormone; [7]): 63.0%
- Enzyme activity remaining after gamma-irradiation (glucose oxidase; [8]): 46.3%
